Measurements published in patent publication US11807644B2 (PMV Pharmaceuticals, Inc., priority 2020, dated 2023).

Target: T1, recombinant His-tag Y220C p53 DBD protein (Homo sapiens, UniProt P04637, Y220C)
T1 construct: recombinant His-tag Y220C p53 DBD protein (amino acids #˜94-312)
Test: In vitro DNA binding activity assay (TR-FRET): binding of His-tag Y220C p53 DBD to biotin-labeled consensus DNA
Assay type: biochemical
Conditions: SC150 = concentration to increase DNA binding by […], His-tag Y220C p53 DBD, biotin-labeled consensus DNA
Procedure: DNA binding activity of the compounds was measured using a TR-FRET (Time-Resolved Fluorescence Resonance Energy Transfer) assay in which recombinant His-tag Y220C p53 DBD protein binds to biotin-labeled consensus DNA. Binding of recombinant His-tag Y220C p53 DBD protein and biotin-labeled consensus DNA was registered by the FRET (fluorescence resonance energy transfer) between allophycocyanin (APC) conjugated anti-His tag antibody and Europium-(Eu) conjugated Streptavidin.
The compounds of TABLES 1-9 (2 mM stock in dimethylsulfoxide) were diluted 3-fold in series in dimethylsulfoxide. 1.2 μL of a compound solution was added to each well of 384-well polypropylene black plates (NUNC). Thirty μL per well of 181 nM recombinant His-tag Y220C p53 DBD protein (amino acids #˜94-312; SEQ ID NO: 1) and 6.1 nM of APC conjugated anti-His tag antibody (Columbia Biosciences) in ice-cold Assay Buffer 1 (50 mM Tris-HCl, pH 7.4, 75 mM KCl, 0.75 mM DTT and 0.2 mg/ml, BSA) were added. As a background control. 30 μL of Assay Buffer 1 containing 6.1 nM of APC anti-His antibody (No Y220C protein) was also added into a second set of serially diluted compound plates. The samples were spun by centrifuge at 1,200 rpm (Eppendorf 5810R Plate centrifuge) for 1 minute and incubated at room temperature (20° C.) for 15 min. The samples were then further incubated at either 27° C. or 29° C. for 60 min. […] The samples were spun by centrifuge at 1,200 rpm for 1 min and incubated at room temperature (20° C.) for 20 min. Assay signals were monitored by reading excitation at 340 nm, and emission fluorescence at 615 nm and 665 nm on an Envision® reader. Normalized TR-FRET (time-resolved fluorescence resonance energy transfer) assay signal (Rn) was calculated by the formula: Rn=[(A−Ba−C×(D−Bd))/(D−Bd)]×(D−Bd) Wherein: • A is the fluorescence intensity of the sample at 665 nm; • D is the fluorescence intensity of the sample at 615 nm; • Ba and Bd are plate backgrounds at 665 nm and 615 nm, respectively; and • Dc is the fluorescence intensity of 0.67 nM Eu-SA in the assay buffer at 615 nm.
The cross-talk factor (C) was determined by the following formula: C=(Ac−Ba)/(Dc−Bd) wherein Ac is the fluorescence intensity of 0.67 nM Europium (Eu) conjugated Streptavidin in the assay buffer at 665 nm.

SMILES	Y220C SC150 (μM)
CN1CC[C@H](Nc2cccc3c2cc(-c2nnc(CNC(=O)c4cccs4)o2)n3CC(F)(F)F)[C@H](F)C1 (racemic) [Compound 120B, (+/−)-N-{[5-(4-{[(3R, 4S)-3-fluoro-1-methylpiperidin-4-yl]amino}-1-(2,2,2-trifluoroethyl)-1H-indol-2-yl)-1,3,4-oxadiazol-2-yl]methyl}thiophene-2-carboxamide]	** (** = 0.1 μM ≤ SC150 < 0.5 μM)
CN1CC[C@H](Nc2cccc3c2cc(-c2nnc(CNCC4CC4)o2)n3CC(F)(F)F)[C@H](F)C1 (racemic) [Compound 121B, (+/−)-2-(5-{[(cyclopropylmethyl)amino]methyl}-1,3,4-oxadiazol-2-yl)-N-[(3R,4S)-3-fluoro-1-methylpiperidin-4-yl]-1-(2,2,2-trifluoroethyl)-1H-indol-4-amine]	**** (**** = 1 μM ≤ SC150 < 10 μM)
CN1CC[C@H](Nc2cccc3c2cc(-c2nnc(CNc4cccc(S(C)(=O)=O)c4)o2)n3CC(F)(F)F)[C@H](F)C1 (racemic) [Compound 122B, (+/−)-N-[(3R,4S)-3-fluoro-1-methylpiperidin-4-yl]-2-(5-{[(3-methanesulfonylphenyl)amino]methyl}-1,3,4-oxadiazol-2-yl)-1-(2,2,2-trifluoroethyl)-1H-indol-4-amine]	** (** = 0.1 μM ≤ SC150 < 0.5 μM)
COc1cc(S(C)(=O)=O)ccc1NCc1nnc(-c2cc3c(N[C@H]4CCN(C)C[C@@H]4F)cccc3n2CC(F)(F)F)o1 (racemic) [Compound 123B, (+/−)-N-[(3R,4R)-3-fluoro-1-methylpiperidin-4-yl]-2-(5-{[(4-methanesulfonyl-2-methoxyphenyl)amino]methyl}-1,3,4-oxadiazol-2-yl)-1-(2,2,2-trifluoroethyl)-1H-indol-4-amine]	** (** = 0.1 μM ≤ SC150 < 0.5 μM)

The next lines start with the values.

Y220C SC150 (μM)	SMILES
* (* = 0 μM ≤ SC150 < 0.1 μM)	CN1CCC(Nc2cccc3c2cc(-c2noc(CNC(=O)[C@@H]4C[C@H]4F)n2)n3CC(F)(F)F)CC1 (racemic) [Compound 145B, (1S,2R)-2-fluoro-N-[(3-{4-[(1-methylpiperidin-4-yl)amino]-1-(2,2,2-trifluoroethyl)-1H-indol-2-yl}-1,2,4-oxadiazol-5-yl)methyl]cyclopropane-1-carboxamide]
* (* = 0 μM ≤ SC150 < 0.1 μM)	CN1CCC(Nc2cccc3c2cc(-c2noc(CNC(=O)[C@@H]4C[C@@H]4F)n2)n3CC(F)(F)F)CC1 (racemic) [Compound 147B, (1S,2S)-2-fluoro-N-[(3-{4-[(1-methylpiperidin-4-yl)amino]-1-(2,2,2-trifluoroethyl)-1H-indol-2-yl}-1,2,4-oxadiazol-5-yl)methyl]cyclopropane-1-carboxamide]
* (* = 0 μM ≤ SC150 < 0.1 μM)	CN1CCC(Nc2cccc3c2cc(-c2noc(CNC(=O)[C@@H]4C[C@H]4c4ccccc4)n2)n3CC(F)(F)F)CC1 (racemic) [Compound 156B, (+/−)-(1R,2R)—N-[(3-{4-[(1-methylpiperidin-4-yl)amino]-1-(2,2,2-trifluoroethyl)-1H-indol-2-yl}-1,2,4-oxadiazol-5-yl)methyl]-2-phenylcyclopropane-1-carboxamide]
* (* = 0 μM ≤ SC150 < 0.1 μM)	C[C@@H]1C[C@H]1C(=O)NCc1nc(-c2cc3c(NC4CCN(C)CC4)cccc3n2CC(F)(F)F)no1 (racemic) [Compound 157B, (+/−)-(1R,2R)-2-methyl-N-[(3-{4-[(1-methylpiperidin-4-yl)amino]-1-(2,2,2-trifluoroethyl)-1H-indol-2-yl}-1,2,4-oxadiazol-5-yl)methyl]cyclopropane-1-carboxamide]
* (* = 0 μM ≤ SC150 < 0.1 μM)	C[C@H]1C[C@H]1C(=O)NCc1nc(-c2cc3c(NC4CCN(C)CC4)cccc3n2CC(F)(F)F)no1 (racemic) [Compound 158B, (+/−)-(1R,2S)-2-methyl-N-[(3-{4-[(1-methylpiperidin-4-yl)amino]-1-(2,2,2-trifluoroethyl)-1H-indol-2-yl}-1,2,4-oxadiazol-5-yl)methyl]cyclopropane-1-carboxamide]
